Experimental data from PMC4820706, “Discovery of a small-molecule binder of the oncoprotein gankyrin that modulates gankyrin activity in the cell” (Scientific Reports, 2016).

Legend:
[1] = target: T1, gankyrin (Homo sapiens, UniProt O75832); experiment: ITC (Kd […], stoichiometry […]); also label-free MST (Kd […]), thermal shift, 1H-15N HSQC NMR; assay type: binding
T1 construct: gene PSMD10; His-tagged full-length human gankyrin
T1 sequence (O75832 1-226): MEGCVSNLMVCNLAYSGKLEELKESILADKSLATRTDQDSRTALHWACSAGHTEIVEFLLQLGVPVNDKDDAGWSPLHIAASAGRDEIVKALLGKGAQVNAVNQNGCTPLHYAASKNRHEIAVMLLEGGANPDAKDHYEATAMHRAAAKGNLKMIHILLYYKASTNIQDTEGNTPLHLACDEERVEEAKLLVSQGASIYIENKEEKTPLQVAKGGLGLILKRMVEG

[2] = target: T1, gankyrin; experiment: ITC; assay type: binding

Kd [1]	Kd [2]	Compound
0.58 ± 0.07 µM		COC(=O)c1ccc(-n2cc(CCCOS(=O)(=O)c3ccc(C)cc3)nn2)cc1 [cjoc42]
	~10 µM	CCCNC(=O)c1ccc(-n2cc(CCCNS(=O)(=O)c3ccc(C)cc3)nn2)cc1 [compound 8]
	~56 µM	COC(=O)c1ccc(-n2cc(CNS(=O)(=O)c3ccc4ccccc4c3)nn2)cc1 [compound 12]
